Like-named read-outs stand apart in the source and are kept apart here. Blank lines part the entries; values can stand above or below the compound they belong to. Ends that are not written are not given here.
Columns and labels:
[1] = tested on: Angiotensin converting enzyme (ACE); experiment: In vitro ACE inhibitory activity assay with FAPGG substrate; format: biochemical; details: captopril at 0.1 μM, 37 °C, 30 min, absorbance 340 nm
Experimental: The peptides predicted with potential antihypertensive capacity were synthesized by GenScript. The ACE inhibitory capacity of hydrolysates and selected peptides were measured as previously described with minor modifications; 400 μL of samples (hydrolysates, synthesized peptides dissolved in the HEPES-NaCl buffer at a concentration of 1.25 mg/mL, 125 μM separately) were mixed with 100 μL of ACE (0.2 U/mL). After incubation of the mixture at 37 °C for 10 min, 500 μL of FAPGG was added and the absorbance value at 340 nm was detected instantly by a FlexStation 3 and recorded as A0 min. After being kept at 37 °C for 30 min, the absorbance value at 340 nm was detected again and recorded: ACE inhibitory rate%=∆Acontrol−∆Asample/∆Acontrol×100% where A0 min is the initial absorbance at 340 nm; A30 min is the absorbance at 340 nm after keeping at 37 °C for 30 min, and ΔA is the reduction in the absorbance: A0 min–A30 min.

[2] = tested on: pepsin; experiment: In vitro gastrointestinal digestion simulation, pepsin step, MS analysis; format: in vitro ADME; details: 1.0 mg/mL peptide, pepsin 1% E/S w/w, pH 2.0, 37 °C, 2 h; Q-TOF MS read-out
Experimental: (§1) In vitro gastrointestinal digestion simulation was performed according to the method described by Fan et al. with minor modifications. Two peptides (CP2, CP3) were dissolved in ultrapure water at 1.0 mg/mL, respectively. The solutions were adjusted to pH 2.0 with […]. Then, pepsin (1% E/S, w/w) was added to peptide solutions and the mixtures were incubated at 37 °C for 2 h. Half of the two digests were terminated in digestion by increasing the temperature to 90 °C. After the other half were adjusted to pH 7.5 with […], pancreatin (1% E/S, w/w) was added and the systems were digested at 37 °C for 2 h. The reactions were then stopped by boiling for 10 min. Subsequently, solvents were centrifuged at 10,000 rpm for 10 min. The supernatants were lyophilized to collect and analyzed using Agilent 6545 series Q-TOF mass spectrometer (Agilent, Waldbronn, Germany). The ACE inhibitory activity of the digested peptide solutions was determined under the same conditions.

[3] = tested on: pepsin-pancreatin; experiment: In vitro gastrointestinal digestion simulation, pepsin then pancreatin, MS analysis; format: in vitro ADME; details: pepsin pH 2.0, 37 °C, 2 h then pancreatin 1% E/S w/w, pH 7.5, 37 °C, Q-TOF MS read-out
Experimental: as §1

[4] = tested on: ACE; details: cited from earlier work

ACE inhibition (%) [1]: 97.5%
Compound: C[C@H](CS)C(=O)N1CCC[C@H]1C(=O)O [Captopril, captopril]

stability against pepsin digestion [2]: well resistant in gastric digestion
stability against successive pepsin and pancreatin digestion [3]: new peptide sequences were detected
Compound: IIPNEVY [CP2]

stability against pepsin digestion [2]: Only a small amount of CP3 was degraded
stability against successive pepsin and pancreatin digestion [3]: Great changes in the MS analysis
Compound: ITPPVMLPP [CP3]

Compound: QAGLSPVR
ACE inhibition pattern ([4]; from tilapia skin gelatin): noncompetitive

Compound: QLDL
ACE inhibition pattern ([4]; from the mycelia of Ganoderma Lucidum): noncompetitive

Compound: VFDGVLRPGQ
ACE inhibition pattern ([4]; from rice bran protein): noncompetitive

Compound: VGLPPNSR
ACE inhibition pattern ([4]; from tilapia skin gelatin): noncompetitive
